Read-outs that look alike come from different tables or passages of the source.

In one series the test system is N6/ADR cells. The series can be described thus: Vincristine cytotoxicity assay on N6/ADR cells (CellTiter-Glo). Format: cell-based, human. As to conditions: for IC50: Homo sapiens. Here is the method: (§1) The effect of antibodies on vincristine cytotoxicity was evaluated on N6/ADR, a doxorubicin-selected, ABCB1-positive variant of the human acute lymphoblastic leukemia (ALL) cell line, NALM6. Cells were plated in 0.05 mL of Assay Media (RPMI-1640 +10% FBS) at 5000 cells/well in white flat bottom 96-well tissue culture plates. Vincristine was prepared at 2X final assay concentration by serial dilution from 200 uM in assay media containing test antibodies or control antibodies at 100 ug/mL (2X final concentration), or valspodar, a small molecule KPB1 inhibitor at 7 uM (2X final concentration). An equivalent volume (0.05 mL) of the vincristine/antibody mixture was added to the N6/ADR cells in 96-well plates. The plates were then incubated at 37° C., in 5% CO2. After 72 hr plates were equilibrated to room temperature and cell viability assessed using Promega® CellTiter-Glo® Luminescent Cell Viability Assay according to the manufacturer’s recommended protocol. Luminescence was measured on a Molecular Devices® FlexStation® 3 Multi-Mode Microplate Reader and data analyzed using GraphPad Prism 8.0 software.
as §1, with “Cytotoxicity Assays. The effect” for “The effect”, “a doxorubicin-selected, B1-positive variant of” for “a doxorubicin-selected, ABCB1-positive variant of”, “small molecule B1 inhibitor at” for “small molecule KPB1 inhibitor at”, “8.0 software. Half maximal inhibitory concentration (IC50) is the concentration of drug (vincristine or other chemotherapy cytotoxic agent) where the response (cell growth) is reduced by 50%.” for “8.0 software.”

Series [1] concerns MES-SA DX5 uterine sarcoma. The series can be described thus: MES-SA DX5 drug-resistant uterine sarcoma model in nude mice. As to conditions: MES-SA DX5 tumors in vivo. Format: in vivo. Here is the method: Anti-ABCB1 antibodies B1.129, B1.261, B1.223, B1.225, B1.188, B1.28, and B1.226 were tested for effect on growth of tumors in immunodeficient mice. The following cancer cell lines were used for generating tumor models.
MES-SA DX5: The multi drug-resistant cell line MES-SA/Dx5 (Sigma. 95051031) was derived from the human uterine sarcoma cell line MES-SA (Sigma Catalogue number. 95051030) which was originally obtained from a tumour from a person at the time of hysterectomy. […] Cross resistance to bleomycin, cisplatin, carmustine, 5-fluorouracil or methotrexate was not observed.
Nude mice were implanted with MES-SA DX5 cells to model uterine sarcoma. Anti-B1 monoclonal antibodies are efficacious in MES-SA DX5 uterine sarcoma model in nude mice.

For the next series, the target named is T1, human MDR1 (Homo sapiens, UniProt P08183).
T1 construct: expressed in transfected cells
Kind of series: Efflux blockade of MDR1 fluorescent substrates (flow cytometry). Format: cell-based. Here is the method: HEK 293T cells expressing human MDR1 or MES-SA/DX5 cells expressing human MDR1 were washed several times and aliquoted into 96-well plates as 50 µl aliquots/well at a cell density of 1 x 10e6 cells per ml in phenol red-free DMEM. Cells were mixed with 300 nM to 1 nM antibodies and incubated for 1 h at 37° C. To determine efflux blockade cells were incubated in the presence of B1 fluorescent substrates as follows: 0.6 µM Rhodamine; 5 µM […] (DiOC2(3)) or 0.6 µM Calcein AM for 1.5 h at 37° C. The cells were then washed twice and finally resuspended in […] PBS. Rhodamine, DiOC2(3) or Calcein AM fluorescence were measured by flow cytometry.
Effect of anti-MDR1 antibodies on efflux of MDR1 substrates Calcein, DIOC2, and Rhodamine was assessed as described in efflux blockade experimental procedure.

The test system of series [2] is human MDR1 extracellular loops 1 and 4 (ECD1, ECD4). Kind of series: Epitope mapping with mutant human MDR1 expressed on 293T cells (flow cytometry). Format: binding. To be noted: mutant versus WT human ABCB1; preliminary epitope mapping. The text has this:
To determine binding of anti-MDR1 mAbs listed in Table 2 to the two major extracellular loops 1 and 4 of MDR1, various mutations were constructed to alter or substitute these two loops. To examine binding to cynomolgus extracellular loops, the extracellular loop 1 and/or loop 4 of cynomolgus MDR1 were grafted (with a C-terminal FLAG tag) to substitute for the human loops in the human MDR1 using standard techniques. To examine binding dependence on the normal human loops, MDR1 variants with deletion 79-102 and deletion 82-99 in loop 1 were also generated. Loop 1 is also referred to as ECD1. Loop 4 is also referred to as ECD4. These mutant MDR1 efflux pump variants were expressed on 293T cells using standard methods to generate cells that could be used to distinguish binding of various anti-MDR1 mAbs. The different cells were incubated with different anti-MDR1 mAbs for about 1 hour at 4° C. The cells were washed twice with FACS buffer (PBS containing 0.5% BSA). Alexa647 labeled goat anti-human antibody was added as a secondary antibody, and the samples were incubated on ice for another 1 hour. Samples were washed again and analyzed by flow cytometry.
FIG. 9 summarizes the findings from preliminary epitope mapping using mutant human MDR1. […] For example, anti-MDR1 mAb B1.129 requires ECD1 and ECD4 for binding to human MDR1. All of the anti-MDR1 antibodies contact ECD4. […] ECD1 refers to the first extracellular domain of human ABCB1, ECD4 refers to the fourth extracellular domain of human ABCB1 and “others” refers to the remainder of the extracellular domains 2-3 and 5-6 of human ABCB1. Only binding to ECD1 and ECD4 was tested.

Series [3] concerns DX5-B1 KO uterine sarcoma. Kind of series: Uterine sarcoma formed from MES-SA DX5 cells lacking ABCB1 expression (DX5-B1 KO). Format: in vivo.

For the compound `CC[C@]1(O)C[C@H]2CN(CCc3c([nH]c4ccccc34)[C@@](C(=O)OC)(c3cc4c(cc3OC)N(C=O)[C@H]3[C@@](O)(C(=O)OC)[C@H](OC(C)=O)[C@]5(CC)C=CCN6CC[C@]43[C@@H]65)C2)C1` [Vincristine, vincristine], the IC50 with N6/ADR cells (72 h, read-out: IC50 (pM), cytotoxicity to N6/ADR cells by vincristine) was determined as 4120 pM; with N6/ADR cells (IC50 of vincristine alone or with antibody, N6/ADR cells, 72 hr, read-out: IC50 (nM), vincristine cytotoxicity), 543 pM.
Consider “15D3: anti-ABCB1 antibody known as 15D3; VH SEQ ID NO:287, VL SEQ ID NO:284 [reference compound]”, for which the “potentiation of vincristine mediated cytotoxicity” value in the series on N6/ADR cells (N6/ADR cells) is recorded as “did not potentiate”. Also, the “sensitization of MES-SA DX5 uterine sarcoma to paclitaxel” value in series [1] was “did not sensitize”. Moreover, in the series with human MDR1 (293T.hB1 cell line), the “inhibition of efflux of DIOC2” value is “no observable effect” and the “inhibition of efflux of Rhodamine” value is on record as “low inhibition”. In the series with human MDR1 (MES-SA/Dx5 cells), the “inhibition of efflux of DIOC2” value is listed as “no observable effect” and the “inhibition of efflux of Rhodamine” value is “no effect”. In series [2], the “ECD1 required for antibody binding to human ABCB1” value is recorded as “do not require” and the “ECD4 required for antibody binding to human ABCB1” value is “bind to an epitope that includes ECD4 sequences”.
Regarding “MRK16: anti-ABCB1 antibody known as MRK16; VH SEQ ID NO:286, VL SEQ ID NO:283”, the “potentiation of vincristine mediated cytotoxicity” value with N6/ADR cells (N6/ADR cells) is “did not potentiate”.
With `CC(=O)O[C@H]1C(=O)[C@@]2(C)[C@H]([C@H](OC(=O)c3ccccc3)[C@]3(O)C[C@H](OC(=O)[C@H](O)[C@@H](NC(=O)c4ccccc4)c4ccccc4)C(C)=C1C3(C)C)[C@]1(OC(C)=O)CO[C@@H]1C[C@@H]2O` [paclitaxel], the “sensitivity of tumor to paclitaxel” value in series [3] was “sensitive”.
Take “KPA08: anti-ABCB1 antibody with two heavy chains from 15D3 and two light chains from MRK16 [reference compound]”: in series [2], the “ECD1 required for antibody binding to human ABCB1” value is “do not require” and the “ECD4 required for antibody binding to human ABCB1” value is “bind to an epitope that includes ECD4 sequences”.

The record behind these values is patent US20230203156A1, “ANTI-MDR1 ANTIBODIES AND USES THEREOF” (KENJOCKETY BIOTECHNOLOGY, INC., priority 2020, published 2023).
